In patent US20170304396A1, “AQUEOUS SOLUTION FORMULATIONS OF VANCOMYCIN” (priority 2015, published 2017):
≈ marks a conversion by molar mass, not a printed value. Counter-ions that a name gives are not always drawn.

Tests used:
[1] = assay type: physicochemical
Protocol: The aim of this study was to compare effects of various ingredients on vancomycin stability in a solution in order to identify a stabilizer that can slow the degradation of vancomycin in solution. Each solution sample (coded with an F-#) was prepared by dissolving vancomycin HCl to 1% concentration, along with stabilizer added at the concentrations listed in the Table below. Each solution was adjusted to about pH 4.7 and stored at 2-8° C. and 50° C. for 2 days. The stability of vancomycin was indicated by vancomycin recovery (% over the initial concentration) after storage at a selected temperature. The concentration of vancomycin or vancomycin assay was measured using HPLC method (USP Vancomycin Assay method). The relative stability of vancomycin in each solution was expressed in vancomycin concentration or assay recovery (% over the initial concentration).
The aim of this study was to compare various amino acids, including tryptophan, on their effects on vancomycin stability in an aqueous solution. The solution samples were prepared and tested similarly to Example 2.
The solution samples were prepared and tested in a similar way as in Example 2. The test sample compositions and test results are shown in the Table below and the effects of tryptophan concentration on vancomycin stability are depicted graphically in FIG. 4.

physchem = test: physchem
Excerpt: As used herein, “molecular complex” means a special interaction between two molecules that are not covalently bonded. […] One of the methods to detect molecular complex formation is the phase solubility diagram which measures changes in solubility of one molecule (“substrate”) as a function of the other molecule (“complexing agent”) (T. Higuchi and J. L. Lach, J. Am. Pharm. Assoc., Sci. Ed. 43, 349, 525, 527, 1954).
In addition, this study intended to determine the stoichiometric ratio of such molecular complex formed. To obtain a phase solubility diagram of tryptophan, pre-calculated amounts of tryptophan, vancomycin and water were added into a plastic tube to form a suspension in which vancomycin was completed dissolved but tryptophan was not completed dissolved, the suspension was adjusted to pH 6.2, mixed at room temperature (RT) overnight to reach dissolution/re-crystallization equilibrium, and then filtered through a 0.2-micorn filter membrane. The filtrate was diluted and analyzed by HPLC (using the USP HPLC vancomycin assay method) to determine the concentrations of tryptophan and vancomycin. The solubility of tryptophan measured and the concentration of vancomycin added measured in each suspension sample are provided in the Table below: […]

Solubility in water = assay type: physicochemical; details: for solubility: water
E. faecalis ATCC 29212 = test: Minimum Inhibitory Concentration (CLSI); assay type: cell-based; details: Example 11
Excerpt: (§1) Standards for this method are outlined by the Clinical and Laboratory Standards Institute (CLSI). The table below describes the vancomycin solution composition used to test antibiotic potency:
(§2) Standards for this method are outlined by the Clinical and Laboratory Standards Institute (CLSI).

S. aureus ATCC 25923 = test: Minimum Inhibitory Concentration (CLSI); assay type: cell-based; details: Example 11
Excerpt: as §1, §2

[2] = Merck Index (12th edition); cited from earlier work

CC(=O)N[C@@H](Cc1c[nH]c2ccccc12)C(=O)O [N-acetyl-tryptophan]
effect of additive on vancomycin stability in solution [1]: capable of slowing down the degradation of vancomycin in solution

N[C@@H](Cc1c[nH]c2ccccc12)C(=O)O [tryptophan]
tryptophan solubility (physchem; pH 6.2): 2.2%
tryptophan solubility (estimated) (physchem; pH 6.2): ~2.5%
solubility (physchem; pH 6.2, aqueous buffer, thermodynamic from solid): ~70 mM (≈ 14.3 mg/mL)
solubility (Solubility in water; without vancomycin, read-out: tryptophan solubility in water): ~14 mg/mL (≈ 68.6 mM)
effect of additive on vancomycin stability in solution [1]: capable of slowing down the degradation of vancomycin in solution
effect of amino acid on vancomycin stability in solution [1]: capable of slowing down the degradation of vancomycin
effect of tryptophan concentration on vancomycin stability in solution [1]: improves vancomycin stability in a concentration-dependent fashion
effect of addition of tryptophan on the MIC of vancomycin (E. faecalis ATCC 29212): does not affect the MIC of vancomycin
effect of addition of tryptophan on the MIC of vancomycin (S. aureus ATCC 25923): does not affect the MIC of vancomycin

CN[C@H](CC(C)C)C(=O)N[C@H]1C(=O)N[C@@H](CC(N)=O)C(=O)N[C@H]2C(=O)N[C@H]3C(=O)N[C@H](C(=O)N[C@H](C(=O)O)c4cc(O)cc(O)c4-c4cc3ccc4O)[C@H](O)c3ccc(c(Cl)c3)Oc3cc2cc(c3O[C@@H]2O[C@H](CO)[C@@H](O)[C@H](O)[C@H]2O[C@H]2C[C@](C)(N)[C@H](O)[C@H](C)O2)Oc2ccc(cc2Cl)[C@H]1O [vancomycin hydrochloride]
solubility of vancomycin hydrochloride in water [2]: > 10 % w/v

CN[C@H](CC(C)C)C(=O)N[C@H]1C(=O)N[C@@H](CC(N)=O)C(=O)N[C@H]2C(=O)N[C@H]3C(=O)N[C@H](C(=O)N[C@H](C(=O)O)c4cc(O)cc(O)c4-c4cc3ccc4O)[C@H](O)c3ccc(c(Cl)c3)Oc3cc2cc(c3O[C@@H]2O[C@H](CO)[C@@H](O)[C@H](O)[C@H]2O[C@H]2C[C@](C)(N)[C@H](O)[C@H](C)O2)Oc2ccc(cc2Cl)[C@H]1O [vancomycin]
vancomycin solubility limit in water (Solubility in water): about 12 % w/v
solubility (Solubility in water; read-out: vancomycin solubility limit in water): ~120 mg/mL (≈ 82.8 mM)
